# “And” between values parts separate entries of the source, which are not always exact repeats. Equal values may be shown once. Numbered stars: 1 amine (or outer) side, 2 acyl side, 3 side chain; on linkers, the order of the positions; unused ones are H or OH. Bridge positions count the residues as written; N and C are the ends. Square brackets hold non-standard residues; d marks the D form. Peptide text beside a SMILES is read from it. I, II: the chains in the order shown. Actinocin(9to1) = Cc1c2oc3c(C)ccc(C(=O)[*:1])c3nc-2c(C(=O)[*:2])c(N)c1=O; NMeV = CN[C@H](C(=O)O)C(C)C; Sar = CNCC(=O)O
# Key:
# TNF-α = target: T1, TNF-α (Homo sapiens, UniProt P01375); assay: Inhibition of TNF-α cytotoxicity in L929 fibroblast cells (MTS); assay type: cell-based, mouse; conditions: Assay 2, Actinomycin D only (no TNFα), sample replicates
# T1 construct: purchased Sigma-Aldrich
# SJSA-1 cells = assay: MTT proliferation assay, SJSA-1; assay type: cell-based, human
# SJSA-1 xenograft [1] = assay: SJSA-1 Bone Osteosarcoma subcutaneous xenograft model
# SJSA-1 xenograft [2] = conditions: mouse, in vivo
# [3] = SBT-100 5.0 mg/kg BID 14 days IP, Doxorubicin 7.0 mg/kg days 1, 8 and 14 IP
# [4] = study day 9 post implant, IP, SBT-100 5.0 mg/kg BIDx14 and/or Doxorubicin 7.0 mg/kg days 1, 8, 14
# [5] = study day 13 post implant, IP, SBT-100 5.0 mg/kg BIDx14 and/or Doxorubicin 7.0 mg/kg days 1, 8, 14
# [6] = study day 16 post implant, IP, SBT-100 5.0 mg/kg BIDx14 and/or Doxorubicin 7.0 mg/kg days 1, 8, 14
# [7] = study day 20 post implant, IP, SBT-100 5.0 mg/kg BIDx14 and/or Doxorubicin 7.0 mg/kg days 1, 8, 14
# [8] = study day 21 post implant, IP, SBT-100 5.0 mg/kg BIDx14 and/or Doxorubicin 7.0 mg/kg days 1, 8, 14
# [9] = study day 23 post implant, IP, SBT-100 5.0 mg/kg BIDx14 and/or Doxorubicin 7.0 mg/kg days 1, 8, 14
# [10] = study day 27 post implant, IP, SBT-100 5.0 mg/kg BIDx14 and/or Doxorubicin 7.0 mg/kg days 1, 8, 14
# T1 sequence (P01375 77-233 limits assumed): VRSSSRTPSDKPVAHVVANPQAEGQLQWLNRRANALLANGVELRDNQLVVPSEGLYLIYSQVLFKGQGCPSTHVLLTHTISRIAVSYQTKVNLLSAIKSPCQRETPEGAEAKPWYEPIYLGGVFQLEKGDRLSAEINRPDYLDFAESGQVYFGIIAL
smiles,measurement,setting,value
"Cc1c2oc3c(C)ccc(C(=O)N[C@@H]4C(=O)N[C@H](C(C)C)C(=O)N5CCC[C@H]5C(=O)N(C)CC(=O)N(C)[C@@H](C(C)C)C(=O)O[C@@H]4C)c3nc-2c(C(=O)N[C@@H]2C(=O)N[C@H](C(C)C)C(=O)N3CCC[C@H]3C(=O)N(C)CC(=O)N(C)[C@@H](C(C)C)C(=O)O[C@@H]2C)c(N)c1=O [Actinomycin D] (I: T[dV]P[Sar][NMeV] / II: T[dV]P[Sar][NMeV]; ester I:1-I:C, II:1-II:C; linker I:N-II:N via Actinocin(9to1))",% Toxicity,TNF-α,0%
"COc1cccc2c1C(=O)c1c(O)c3c(c(O)c1C2=O)C[C@@](O)(C(=O)CO)C[C@@H]3O[C@H]1C[C@H](N)[C@H](O)[C@H](C)O1 [Doxorubicin, reference compound]",inhibition of SJSA-1 cells,"SJSA-1 cells; 72 hours, SBT-100 at 50 and 100 μg/ml, Doxorubicin at all dose levels tested",significant dose-dependent inhibition
same,inhibition at 0.0313 µM,"SJSA-1 cells; Homo sapiens, SJSA-1, 72 h",28%
same,inhibition at 0.0625 µM,"SJSA-1 cells; Homo sapiens, SJSA-1, 72 h",29%
same,inhibition at 0.313 µM,"SJSA-1 cells; Homo sapiens, SJSA-1, 72 h",31%
same,inhibition at 0.5 µM,"SJSA-1 cells; Homo sapiens, SJSA-1, 72 h",36%
same,inhibition at 0.625 µM,"SJSA-1 cells; Homo sapiens, SJSA-1, 72 h",29%
same,inhibition at 1 µM,"SJSA-1 cells; Homo sapiens, SJSA-1, 72 h",49%
same,inhibition at 5 µM,"SJSA-1 cells; Homo sapiens, SJSA-1, 72 h",52%
same,inhibition at 10 µM,"SJSA-1 cells; Homo sapiens, SJSA-1, 72 h",45%
same,Mean Abs (±SD),"SJSA-1 cells; Table 72 (experiment 5a), Doxorubicin 0.0313 μM alone, 72 hours",0.281 ± 0.031
same,Mean Abs (±SD),"SJSA-1 cells; Table 72 (experiment 5a), Doxorubicin 0.0625 μM alone, 72 hours",0.277 ± 0.035
same,Mean Abs (±SD),"SJSA-1 cells; Table 72 (experiment 5a), Doxorubicin 0.5 μM alone, 72 hours",0.248 ± 0.038
same,Mean Abs (±SD),"SJSA-1 cells; Table 72 (experiment 5a), Doxorubicin 1 μM alone, 72 hours",0.197 ± 0.012
same,Mean Abs (±SD),"SJSA-1 cells; Table 73 (Experiment 2, 5b), Doxorubicin 0.313 μM alone, 72 hours",0.519 ± 0.004
same,Mean Abs (±SD),"SJSA-1 cells; Table 73 (Experiment 2, 5b), Doxorubicin 0.625 μM alone, 72 hours",0.530 ± 0.024
same,Mean Abs (±SD),"SJSA-1 cells; Table 73 (Experiment 2, 5b), Doxorubicin 5.00 μM alone, 72 hours",0.358 ± 0.003
same,Mean Abs (±SD),"SJSA-1 cells; Table 73 (Experiment 2, 5b), Doxorubicin 10.0 μM alone, 72 hours",0.414 ± 0.007
same,% T/C,SJSA-1 xenograft [1]; [3],17.91%
same,mean tumor growth inhibition at the end of the study,SJSA-1 xenograft [1]; [3],84.71%
same,mean tumor size (±S.E.) at termination,SJSA-1 xenograft [1]; [3],215.84±52.32
same,mean tumor size (±SE) at the last day of dosing,SJSA-1 xenograft [1]; [3],118.18±11.13
same,tumor doubling time,SJSA-1 xenograft [1]; control 8.22,13.32
same,% Inh Mean,SJSA-1 xenograft [1]; [4],58.36%
same,% Inh Med,SJSA-1 xenograft [1]; [4],32.94%
same,Mean Abs (tumor measurement),SJSA-1 xenograft [1]; [4],16.52 mm^3
same,"Tumor Measurements, single animals",SJSA-1 xenograft [1]; [4],23.19 mm^3 and 14.32 mm^3 and 16.69 mm^3 and 0.00 mm^3 (2×) and 46.20 mm^3
same,% Inh Mean,SJSA-1 xenograft [1]; [5],3.16%
same,% Inh Med,SJSA-1 xenograft [1]; [5],−23.18%
same,% T/C,SJSA-1 xenograft [1]; [5],107.14%
same,Mean Abs (tumor measurement),SJSA-1 xenograft [1]; [5],76.72 mm^3
same,Median Abs (tumor measurement),SJSA-1 xenograft [1]; [5],72.93 mm^3
same,"Tumor Measurements, single animals",SJSA-1 xenograft [1]; [5],48.43 mm^3 and 20.77 mm^3 and 132.27 mm^3 and 104.16 mm^3 and 25.81 mm^3 and 132.66 mm^3 and 72.93 mm^3
same,% Inh Mean,SJSA-1 xenograft [1]; [6],55.02%
same,% Inh Med,SJSA-1 xenograft [1]; [6],55.11%
same,% T/C,SJSA-1 xenograft [1]; [6],51.96%
same,Mean Abs (tumor measurement),SJSA-1 xenograft [1]; [6],78.09 mm^3
same,Median Abs (tumor measurement),SJSA-1 xenograft [1]; [6],73.50 mm^3
same,"Tumor Measurements, single animals",SJSA-1 xenograft [1]; [6],102.31 mm^3 and 37.33 mm^3 and 105.65 mm^3 and 118.75 mm^3 and 57.55 mm^3 and 51.55 mm^3 and 73.50 mm^3
same,% Inh Mean,SJSA-1 xenograft [1]; [7],74.31%
same,% Inh Med,SJSA-1 xenograft [1]; [7],71.58%
same,% T/C,SJSA-1 xenograft [1]; [7],30.35%
same,Mean Abs (tumor measurement),SJSA-1 xenograft [1]; [7],79.33 mm^3
same,Median Abs (tumor measurement),SJSA-1 xenograft [1]; [7],72.16 mm^3
same,"Tumor Measurements, single animals",SJSA-1 xenograft [1]; [7],61.44 mm^3 and 68.71 mm^3 and 114.42 mm^3 and 93.72 mm^3 and 75.00 mm^3 and 69.85 mm^3 and 72.16 mm^3
same,% Inh Mean,SJSA-1 xenograft [1]; [8],70.41%
same,% Inh Med,SJSA-1 xenograft [1]; [8],61.77%
same,% T/C,SJSA-1 xenograft [1]; [8],36.16%
same,Mean Abs (tumor measurement),SJSA-1 xenograft [1]; [8],118.18 mm^3
same,"Tumor Measurements, single animals",SJSA-1 xenograft [1]; [8],85.16 mm^3 and 115.50 mm^3 and 133.21 mm^3 and 119.94 mm^3 and 160.89 mm^3 and 94.40 mm^3
same,% Inh Mean,SJSA-1 xenograft [1]; [9],72.79%
same,% Inh Med,SJSA-1 xenograft [1]; [9],71.86%
same,% T/C,SJSA-1 xenograft [1]; [9],30.43%
same,Mean Abs (tumor measurement),SJSA-1 xenograft [1]; [9],141.94 mm^3
same,Median Abs (tumor measurement),SJSA-1 xenograft [1]; [9],129.81 mm^3
same,"Tumor Measurements, single animals",SJSA-1 xenograft [1]; [9],105.84 mm^3 and 142.33 mm^3 and 217.29 mm^3 and 151.94 mm^3 and 116.95 mm^3 and 117.30 mm^3
same,% Inh Mean,SJSA-1 xenograft [1]; [10],84.71%
same,% Inh Med,SJSA-1 xenograft [1]; [10],81.05%
same,% T/C,SJSA-1 xenograft [1]; [10],17.91%
same,Mean Abs (tumor measurement),SJSA-1 xenograft [1]; [10],215.84 mm^3
same,Median Abs (tumor measurement),SJSA-1 xenograft [1]; [10],215.84 mm^3
same,"Tumor Measurements, single animals",SJSA-1 xenograft [1]; [10],163.53 mm^3 and 268.16 mm^3
same,number surviving at the end of the study,"SJSA-1 xenograft [2]; Hsd: Athymic Nude-Fox1nu, 14 days",2
same,Are the survival curves sig different?,SJSA-1 xenograft [2],Yes
